Measured values as given in patent US20230101768A1, “METHOD TO TREAT MANGANESE TOXICITY AND MANGANESE-INDUCED PA[…] HUMANS” (priority 2021, published 2023).
Read-outs that look alike come from different tables or passages of the source. Starred links: 1 amine or outer side, 2 acyl side, 3 side chain; linkers in the order of their positions; H or OH if unused. Positions of bridges follow the written chain, without caps; N, C: chain ends. Non-standard residues stand in square brackets, D forms with d. Residues, ends and D or L forms follow the SMILES beside them. Chains are numbered I, II in the order given. *: point of attachment. Actinocin(9to1) = Cc1c2oc3c(C)ccc(C(=O)[*:1])c3nc-2c(C(=O)[*:2])c(N)c1=O; NMeV = CN[C@H](C(=O)O)C(C)C; Cbz = O=C(OCc1ccccc1)*; Sar = CNCC(=O)O

Columns and labels:
SLC30A10 promoter = format: cell-based, human
Description: A luciferase reporter plasmid containing the proximal promoter of human SLC30A10 has been previously described and was a gift of Dr. Ruth Valentine (100). The promoter fragment corresponding to bases −679 to +211 relative to the start of transcription was sub-cloned into the Xho1 and SpeI sites of pRRLSIN.cPPTLuciferase.WPRE vector (Addgene, #69251), which is a luciferase vector for lentivirus infections. Deletion mutants were generated using the loop-out modification of the QuikChange protocol.
Lentiviral infections. Stable cells were generated by lentivirus infection essentially as described by us previously (49, 98). Briefly, lentivirus was produced in HEK293T cells by co-transfecting transfer plasmids described above with plasmids coding for a third generation packing system that is routinely used (pRSV-Rev, pRRE, and pCMV-VSVG) (49, 98). Viral supernatants were collected 40-48 h post-transfection. HepG2 cells for infection were plated in a 60 mm dish 24 h before infection so that cells reached a confluence of 30% on the day of infection. Collected viral supernatants were filtered through a 0.45-μm polyvinylidene difluoride filter, and cells were incubated with a 1:2 dilution of viral supernatant containing 5 μg/mL Polybrene (Santa Cruz). […]

SLC30A10 [1] = format: cell-based, human; details: for SLC30A10 expression after prolyl hydroxylase inhibitor: indicated doses for 16 h or indicated times, no drug normalized to 1
Description: (§1) Cells were treated with 0 or 250 μM manganese for 4 h, and gene expression was analyzed by qRT-PCR. For each transcript, expression without manganese treatment was normalized to 1. N=4. Data are mean±SE.
(§2) Cell culture. HepG2 cells were grown in Eagle's modified essential medium (MEM; Corning) with 10% fetal bovine serum (Atlanta Biologicals), 100 IU/ml penicillin (Corning), and 100 μg/ml streptomycin (Corning). 293T cells were maintained in Dulbecco's modified essential medium/F12 (Thermo) supplemented with 10% fetal bovine serum, penicillin (100 IU/ml), and streptomycin (100 μg/ml). Human primary hepatocytes were purchased from XenoTech (catalog #HPCH10+) and cultured according to protocols provided by the supplier.
(§3) manganese and drug treatments in cell culture. Cells were treated with indicated levels of manganese as manganeseCl2.4H2O (Fisher). Vehicle for manganese treatment was water. Prolyl hydroxylase inhibitors roxadustat (Caymen), vadadustat, and molidustat (both APE-Bio); the HIFα inhibitor LW6 (Selleckchem); the proteasomal inhibitor MG132 (Sigma); and the transcription inhibitor actinomycin D (Sigma) were dissolved in DMSO. […] Vehicle treatment for all drugs was DMSO.
(§4) Quantitative RT-PCR assays. RNA extraction from HepG2 cells and mouse tissue, reverse transcription to cDNA, and qRT-PCR analyses were performed as described by us previously (47, 50). For analyses of mouse brain samples, a part of the midbrain, including the basal ganglia, was used. Transcript levels were quantified using the ΔΔCT method with 18S (in mice) or TBP (in HepG2 cells) as the internal control, also as described by us previously (47, 50).

VEGF [2] = format: cell-based, human; details: HepG2 cells, 10 μM LW6 for 1 h then 250 μM manganese for 4 h
Description: as §1, §2, §3, §4

SLC30A10 [3] = format: cell-based; details: primary human hepatocytes; for SLC30A10 expression after prolyl hydroxylase inhibitor: 20 μM roxadustat or 80 μM vadadustat for 16 h
Description: (§5) (A) and (B): qRT-PCR assays in cells treated with or without 10 μM LW6 for 1 h followed by 0 or 250 μM manganese for 4 h (A) or with or without 20 μM roxadustat or 80 μM vadadustat for 16 h (B). […] For (B), expression in the absence of drug treatment was normalized to 1. N=3. Mean±SE. *P<0.05 by t-test (A) or one-way ANOVA and Dunnett's post hoc test for the comparison between no drug and other conditions (B).
as §2, §3, §4

VEGF [4] = format: cell-based; details: primary human hepatocytes; for VEGF expression after prolyl hydroxylase inhibitor: 20 μM roxadustat or 80 μM vadadustat for 16 h
Description: as §5, §2, §3, §4

HepG2 cells [5] = experiment: MTT cell viability assay, manganese-induced cell death; format: cell-based, human; details: 20 μM roxadustat, 80 μM vadadustat or 20 μM molidustat for 16 h then manganese for 24 h
Description: manganese and drug treatments in cell culture. […] Vehicle for manganese treatment was water. […] Vehicle treatment for all drugs was DMSO.
Cell viability assays. These were performed using the 3-(4,5-dimethylthiazol-2-yl)-2,5-diphenyl tetrazolium bromide (MTT) reagent (Sigma) as described by us previously (47, 50).

HIF1α = format: cell-based, human; details: HepG2 cells, 20 μM roxadustat, 80 μM vadadustat or 20 μM molidustat for 16 h
Description: as §3
(§6) Immunoblots. HepG2 cells were cultured in 35 mm dishes, treated with or without manganese, MG132 and/or prolyl hydroxylase inhibitors, and scrapped using 200 μl of RIPA buffer (50 mM Tris-HCl, pH7.4; 150 mM NaCl; 1Mm EDTA; 1% Triton; 0.25% sodium deoxycholate; protease inhibitors cocktail (Thermo A32953)). Whole-cell lysates were prepared by adding loading buffer (50 mM Tris-HCl, pH 7.4; 2% sodium dodecyl sulfate; 10% glycerol, 0.1 M dithiothreitol; 0.01% (weight/volume) bromophenol blue) and boiling the samples for 5 min. Equal volumes of samples were loaded per lane. Further processing was as described by us previously (47). Images were quantified using ImageQuant TL software (GE).
(§7) Antibodies and chemicals. The inventors used the following commercial primary antibodies in this study: rabbit polyclonal anti-HIF1α (Abcam, Ab2185), rabbit polyclonal anti-HIF2α (Novus, NB100-122), rabbit monoclonal anti-HIF1α proline 564 (Cell signaling, 3434S), and mouse monoclonal anti-tubulin (Sigma, T5168). […] Sources of chemicals not provided elsewhere were Thermo Fisher Scientific or Sigma-Aldrich.

HIF2α = format: cell-based, human; details: HepG2 cells, 20 μM roxadustat, 80 μM vadadustat or 20 μM molidustat for 16 h
Description: as §3, §6, §7

HepG2 cells [6] = format: cell-based, human
Description: as §2, §3
(§8) Inductively coupled plasma mass spectrometry. Metal measurements using ICP-MS were performed exactly as described by us previously (47, 50, 51, 99).

[7] = system: prolyl hydroxylated HIF1α; format: cell-based, human
Description: as §3, §6, §7

SLC30A10 [8] = format: in vivo, mice; details: C57BL/6J mice, roxadustat 10 mg/kg daily i.p. for 4 weeks
Description: A well-characterized drinking water-based manganese exposure regimen was used to model human environmental manganese exposure by providing mice with ˜50 mg manganeseCl2.4H2O/kg body weight daily (˜15 mg absolute manganese/kg per day) from birth until 8 weeks of age. This, and related similar, dosing regimens: 1) approximate the increase in manganese exposure in humans consuming well water contaminated with 1.5 mg manganese/L, which is the median well water concentration associated with neurological deficits in children; 2) increase brain manganese levels by ˜2-3 fold, similar to human patients; 3) produce measurable neurobehavioral deficits without overt toxicity; and 4) model exposure to manganese in developmentally-sensitive early-life and adolescent periods (11). Pre-weaning manganese was delivered by pipette directly into the mouth, and post-weaning manganese was delivered in drinking water using procedures described in detail in ref. (11). In brief, pre-weaning dosing was adjusted to each animal's body weight. For this, a stock solution of 69.2 mg absolute manganese/ml prepared in milliQ water was diluted in milliQ water containing 2.5% (wt/vol) of the natural sweetener Stevia (to facilitate intake by pups), and the required manganese amount (0.2 μl manganese stock/g body weight) was delivered in a dose of ˜5-10 μl/animal. For post-weaning exposure, a 27.7 mg absolute manganese/ml stock solution was prepared in water and diluted to 0.069 mg absolute manganese/ml in drinking water, which provided mice with ˜15 mg absolute manganese/kg per day based on a daily water intake of ˜2-5 ml/mouse depending on age.
(§9) To assay for the protective effect of roxadustat, animals were exposed to roxadustat or vehicle with or without manganese in drinking water from ˜4 weeks of age. Treatment lasted for 4 weeks from initiation. Roxadustat (Selleckchem) was prepared as a 50 mg/ml stock solution in DMSO, then diluted to 1 mg/ml in sterile phosphate buffered saline (PBS), and delivered by daily i.p. injection at 10 mg/kg. Vehicle was 2% DMSO in PBS. For this experiment, drinking water manganese levels were adjusted to 0.138 mg absolute manganese/ml so that animals received ˜30 mg absolute manganese/kg daily. A higher level of manganese was used because exposure was initiated after weaning, which was necessary because daily i.p. injections for roxadustat delivery were not possible in the pre-weaning period.
(§10) Animals were euthanized using carbon dioxide and tissue dissected for qRT-PCR or ICPMS analyses as described by us previously (50).
as §4

C57BL/6J mice [9] = details: roxadustat 10 mg/kg daily i.p. with or without manganese in drinking water, 4 weeks, two-way ANOVA
Description: as §9, §10, §8

C57BL/6J mice [10] = system: C57BL/6J mice
Description: as §9
Open-field assays for neurobehavior assessment. Open-field analyses were performed as described in a recent publication (51).

[11] = 10 μM LW6 for 1 h then 250 μM manganese for 4 h

| SMILES | Protection against manganese-induced cell death (HepG2 cells [5]) | HIF1α protein levels after prolyl hydroxylase inhibitor (HIF1α) | HIF2α protein levels after prolyl hydroxylase inhibitor (HIF2α) | Intracellular Fe, Cu, and Zn levels (HepG2 cells [6]) | Intracellular manganese in cells not exposed to manganese (HepG2 cells [6]) | Intracellular manganese levels under elevated manganese exposure, versus controls (HepG2 cells [6]) | SLC30A10 expression after prolyl hydroxylase inhibitor (SLC30A10 [1]; HepG2 cells) | SLC30A10 expression after prolyl hydroxylase inhibitor (SLC30A10 [3]) | VEGF expression after prolyl hydroxylase inhibitor (VEGF [4]) | also measured |
| --- | --- | --- | --- | --- | --- | --- | --- | --- | --- | --- |
| COC(=O)c1ccc(O)c(NC(=O)COc2ccc(C34CC5CC(CC(C5)C3)C4)cc2)c1 [LW6, reference compound] | – | – | – | – | – | – | – | – | – | Effect of LW6 on manganese-induced increase in activity of SLC30A10 promoter luciferase reporter (SLC30A10 promoter): abolished; Effect of LW6 on manganese-induced upregulation of SLC30A10 (SLC30A10 [1]; HepG2 cells, 10 μM LW6 for 1 h then 250 μM manganese for 4 h): robustly blocked; Effect of LW6 on manganese-induced upregulation of VEGF (VEGF [2]): robustly blocked; Effect of LW6 on manganese-induced increase of SLC30A10 expression (SLC30A10 [3]; [11]): inhibited; Effect of LW6 on manganese-induced increase of VEGF expression (VEGF [4]; [11]): inhibited |
| Cc1c2oc3c(C)ccc(C(=O)N[C@@H]4C(=O)N[C@H](C(C)C)C(=O)N5CCC[C@H]5C(=O)N(C)CC(=O)N(C)[C@@H](C(C)C)C(=O)O[C@@H]4C)c3nc-2c(C(=O)N[C@@H]2C(=O)N[C@H](C(C)C)C(=O)N3CCC[C@H]3C(=O)N(C)CC(=O)N(C)[C@@H](C(C)C)C(=O)O[C@@H]2C)c(N)c1=O [actinomycin D, reference compound] (I: T[dV]P[Sar][NMeV] / II: T[dV]P[Sar][NMeV]; ester I:1-I:C, II:1-II:C; linker I:N-II:N via Actinocin(9to1)) | – | – | – | – | – | – | – | – | – | Effect of actinomycin D on increase in SLC30A10 mRNA after manganese exposure (SLC30A10 [1]): blocked |
| O=C(O)CNC(=O)c1ncc(-c2cccc(Cl)c2)cc1O [vadadustat, 2-[[5-(3-chlorophenyl)-3-hydroxypyridine-2-carbonyl]amino]acetic acid] | protected | increased | increased | no effect | did not impact | significantly lower | enhanced | increased | increased | – |
| CC(C)C[C@@H](C=O)NC(=O)[C@H](CC(C)C)NC(=O)[C@H](CC(C)C)NC(=O)OCc1ccccc1 [MG132, reference compound] (Cbz-Leu-Leu-Leu-aldehyde) | – | – | – | – | – | – | – | – | – | Prolyl hydroxylated HIF1α after proteasome inhibition [7]: accumulation |
| Cc1nc(C(=O)NCC(=O)O)c(O)c2ccc(Oc3ccccc3)cc12 [roxadustat, 2-[(4-hydroxy-1-methyl-7-phenoxyisoquinoline-3-carbonyl)amino]acetic acid] | protected | increased | increased | no effect | did not impact | significantly lower | enhanced | increased | increased | Brain SLC30A10 levels (SLC30A10 [8]): did not impact; Intestinal SLC30A10 levels (SLC30A10 [8]): increased; Brain manganese levels, main effect of roxadustat (C57BL/6J mice [9]): reducing; Open-field activity, roxadustat treatment by itself (C57BL/6J mice [10]; C57BL/6J mice, roxadustat 10 mg/kg daily i.p. for 4 weeks, no manganese): did not impact; Hypo-locomotor phenotype (reduced vertical movement) in mice treated with manganese and roxadustat (C57BL/6J mice [10]; mouse, in vivo): not detected |
